Our source for the LC retention time values is the RepoRT retention time repository.

The nature of the data set: HILIC, Waters Atlantis Premier BEH Z-HILIC, 100 × 2.1 mm, 1.7 µm, 40 °C, 0.15 mL/min, estimated dead time 1.5 min; A: water + 20 mM ammonium carbonate + 5 µM medronic acid; B: 10% water + 90% acetonitrile + 2 mM ammonium carbonate + 0.5 µM medronic acid; gradient (min/%B) 0/100 18/55 18.1/20 21.5/20 22/100 23.5/100 25.5/100. Conditions: stereoisomer not certain.

As for `O=C(O)CCC(=O)C(=O)O` [2-Oxoglutaric acid], the LC retention time was 8.62 min.
Next, `O=C(O)CCC(O)C(=O)O` (stereo not given) [2-hydroxy glutaric acid]: 9.58 min.
The result for `Nc1ncnc2c1ncn2C1OC(COP(=O)(O)OP(=O)(O)O)C(O)C1O` (stereo not given) [ADP] reads 11.9 min; that for `Nc1ncnc2c1ncn2C1OC(COP(=O)(O)O)C(O)C1O` (stereo not given) [AMP], 8.82 min.
As for `Nc1ncnc2c1ncn2C1OC(COP(=O)(O)OP(=O)(O)OP(=O)(O)O)C(O)C1O` (stereo not given) [ATP], the LC retention time is 14.3 min.
Take `CC(=O)SCCNC(=O)CCNC(=O)C(O)C(C)(C)COP(=O)(O)OP(=O)(O)OCC1OC(n2cnc3c(N)ncnc32)C(O)C1OP(=O)(O)O` (stereo not given) [Acetyl-CoA]: the LC retention time was 9.49 min.
Next, `Nc1ncnc2c1ncn2C1OC(CO)C(O)C1O` (stereo not given) [Adenosine]: 3.65 min; `O=C(O)CCCCC1SCC2NC(=O)NC21` (stereo not given) [Biotin]: 4.6 min; `C[N+](C)(C)CC(O)CC(=O)[O-]` (stereo not given) [Carnitine]: 9.95 min.
The result for `O=C(O)CC(O)(CC(=O)O)C(=O)O` [Citric acid] reads 14.7 min; that for `CC(C)(COP(=O)(O)OP(=O)(O)OCC1OC(n2cnc3c(N)ncnc32)C(O)C1OP(=O)(O)O)C(O)C(=O)NCCC(=O)NCCS` (stereo not given) [CoenzymeA], 11.9 min; that for `Cc1cc2nc3c(=O)[nH]c(=O)nc-3n(CC(O)C(O)C(O)COP(=O)(O)OP(=O)(O)OCC3OC(n4cnc5c(N)ncnc54)C(O)C3O)c2cc1C` (stereo not given) [FAD], 7.27 min.
As for `O=C(CO)C(O)C(O)C(O)COP(=O)(O)O` (stereo not given) [Fructose 6-phosphate], the LC retention time is 12 min.
The result for `O=P(O)(O)OCC1OC(O)(COP(=O)(O)O)C(O)C1O` (stereo not given) [Fructose-1,6-bisphosphate] reads 16.6 min; that for `Nc1nc2c(ncn2C2OC(COP(=O)(O)OP(=O)(O)OP(=O)(O)O)C(O)C2O)c(=O)[nH]1` (stereo not given) [GTP], 17.1 min; that for `O=P(O)(O)OCC1OC(O)C(O)C(O)C1O` (stereo not given) [Glucose-6-phosphate], 12.6 min.
The result for `NC(CCC(=O)O)C(=O)O` (stereo not given) [Glutamic acid] reads 9.29 min; that for `NC(=O)CCC(N)C(=O)O` (stereo not given) [Glutamine], 10.4 min; that for `O=P(O)(O)OCC(O)CO` (stereo not given) [Glycerol-3-phosphate], 9.84 min.
Next, `OCC1OC(O)C(O)C(O)C1O` (stereo not given) [Hexose]: 6.94 min; `O=C(O)CC(C(=O)O)C(O)C(=O)O` (stereo not given) [Isocitric acid]: 14.5 min.
As for `CCC(C)C(N)C(=O)O` (stereo not given) [Isoleucine], the LC retention time is 6.3 min.
The result for `CC(O)C(=O)O` (stereo not given) [Lactic Acid] reads 3.36 min.
Turning to `CC(C)CC(N)C(=O)O` (stereo not given) [Leucine], the LC retention time is 6.08 min.
Next, `NC(=O)C1=CN(C2OC(COP(=O)(O)OP(=O)(O)OCC3OC(n4cnc5c(N)ncnc54)C(O)C3O)C(O)C2O)C=CC1` (stereo not given) [NADH]: 7.99 min.
Next, `NC(=O)C1=CN(C2OC(COP(=O)(O)OP(=O)(O)OCC3OC(n4cnc5c(N)ncnc54)C(OP(=O)(O)O)C3O)C(O)C2O)C=CC1` (stereo not given) [NADPH]: 14.7 min; `NC(=O)c1ccc[n+](C2OC(COP(=O)(O)OP(=O)(O)OCC3OC(n4cnc5c(N)ncnc54)C(OP(=O)(O)O)C3O)C(O)C2O)c1` (stereo not given) [NADP]: 13.8 min; `NC(=O)c1ccc[n+](C2OC(COP(=O)(O)OP(=O)(O)OCC3OC(n4cnc5c(N)ncnc54)C(O)C3O)C(O)C2O)c1` (stereo not given) [NAD]: 10.5 min.
Next, `C=C(OP(=O)(O)O)C(=O)O` [PEP]: 14.4 min; `O=C(O)C(CO)OP(=O)(O)O` (stereo not given) [Phosphoglyceric acid A]: 13.3 min.
For the compound `O=C(O)CCC(=O)O` [Succinic Acid], the LC retention time is 9.39 min.
The result for `O=C(CO)COP(=O)(O)O` [Triose phosphate] reads 9.84 min; that for `CC(=O)NC1C(OP(=O)(O)OP(=O)(O)OCC2OC(n3ccc(=O)[nH]c3=O)C(O)C2O)OC(CO)C(O)C1O` (stereo not given) [UDP-GlcNAc], 9.63 min; that for `CCC(=O)OC(CC(=O)[O-])C[N+](C)(C)C` (stereo not given) [carnitine-C3], 6.33 min.
Next, `O=C1CC(C(=O)O)NC(=O)N1` (stereo not given) [dihydroorotic acid]: 4.02 min.
